According to patent publication US20230094568A1, “METHOD FOR SUPPRESSING DIFFERENTIATION OF PLURIPOTENT STEM CELLS” (KANEKA CORPORATION, priority 2020, published 2023):

System: Human iPS cell WTC-11 strain
Assay: Quantitative real-time PCR of marker genes after suspension culture (Example 2)
Assay type: cell-based
Conditions: WTC-11, day 10 of suspension culture, inhibitor(s) in medium
Procedure: After the EDTA solution was sucked up, StemFit® AK02N medium was added to the dish, cells were detached with a cell scraper, and then dispersed into single cells by pipetting. […] Into a 6-well plate for suspension culture (Sumitomo Bakelite Co., Ltd.), 4 mL of the cell suspension was seeded per well. On a rotary shaker (Optima Co., Ltd.), the plate into which the cells had been seeded was rotated along a circle having a rotation width (diameter) of 25 mm in the horizontal plane at a speed of 90 rpm, and suspension culture was performed under an environment at 37° C. and 5% CO2. Subculture was performed on day 5 of culture as the day on which the cells were seeded was defined as day 0 of culture, and suspension culture was performed until day 10 of culture. Medium exchange was performed on day 2, 4, 7, and 9 of culture. […] On day 5 of culture, a cell aggregate and culture supernatant were collected from each well into a centrifuge tube, left to stand for about 5 minutes to precipitate the cell aggregate, and the culture supernatant was removed. […]
Quantitative real-time PCR analysis was performed with a procedure shown in the following. […] Quantitative real-time PCR analysis was carried out by using a TaqMan® QuantStudio3 real-time PCR system (Thermo Fisher Scientific).

Compound | ACTB-normalized relative gene expression level (2^−ΔCt) OCT4
O=C(Nc1cccc2cccnc12)c1ccc(N2C(=O)[C@@H]3[C@H](C2=O)[C@@H]2C=C[C@H]3C2)cc1 [Comparative Example 2, 4-(1,3,3a,4,7,7a-hexahydro-1,3-dioxo-4,7-methano-2H-isoindol-2-yl)-N-8-quinolinyl-benzamide] | 2.05
COc1ccc2c(c1)c(C1=C(c3c[nH]c4ccccc34)C(=O)NC1=O)cn2CCCN(C)C [Comparative Example 3, 3-[1-[3-(dimethylamino)propyl]-5-methoxy-1H-indol-3-yl]-4-(1H-indol-3-yl)-1H-pyrrole-2,5-dione] | 3.30 × 10^−3
